{
  "source": "BindingDB's records for doi:10.1021/jm990343b",
  "about": "(Purdue University, 1999)",
  "note": "Several values for one entry are separate records, joined by “and”; a condition that tells them apart may be missing. Equal values may be shown once.",
  "data": [
    {"target": "T1, Gag-Pol polyprotein [588-1027]/[588-1147] (Human immunodeficiency virus 1, UniProt P04585)", "T1 construct": "588-1027; 588-1147", "experiment": "HIV-1 RT Assay", "details": "pH 7.9", "values": [
      {"compound": "CCC(CCCC=C(c1cc(Cl)c(OC)c(CO)c1)c1cc(Cl)c(OC)c(CO)c1)C1OCCO1", "note": "(stereo not drawn) [(3-chloro-5-{1-[3-chloro-5-(hydroxymethyl)-4-methoxyphenyl]-6-(1,3-dioxolan-2-yl)oct-1-en-1-yl}-2-methoxyphenyl)methanol]", "IC50": "3.2 µM and 31.6 µM"},
      {"compound": "COC(=O)CC=C(c1cc(Cl)c(OC)c(C(=O)OC)c1)c1cc(Cl)c(OC)c(C(=O)OC)c1", "note": "[methyl 3-chloro-5-{1-[3-chloro-4-methoxy-5-(methoxycarbonyl)phenyl]-4-methoxy-4-oxobut-1-en-1-yl}-2-methoxybenzoate]", "IC50": "> 100 µM"},
      {"compound": "COC(=O)CCC=C(c1cc(Cl)c(OC)c(C(=O)OC)c1)c1cc(Cl)c(OC)c(C(=O)OC)c1", "note": "[methyl 3-chloro-5-{1-[3-chloro-4-methoxy-5-(methoxycarbonyl)phenyl]-5-methoxy-5-oxopent-1-en-1-yl}-2-methoxybenzoate]", "IC50": "> 100 µM"}
    ]}
  ]
}
